Results from patent US8748417B2, “Amino-pyrrolidine-azetidine diamides as monoacylglycerol lipase inhibitors” (Janssen Pharmaceutica, NV, priority 2010, dated 2014).

Assays:
[1] = target: T1, purified wild type MGL (wt-MGLL 6H-11-313) (Homo sapiens, UniProt Q99685); assay: MGL enzyme activity assay (4MU-B cleavage), wild type MGL; type: biochemical; details: wild type MGL 5 nM, 4MU-B 10 μM, 37° C.; read-out: MGL wild type inh IC50
T1 construct: purified wild type MGL (wt-MGLL 6H-11-313)
T1 sequence (Q99685 1-303): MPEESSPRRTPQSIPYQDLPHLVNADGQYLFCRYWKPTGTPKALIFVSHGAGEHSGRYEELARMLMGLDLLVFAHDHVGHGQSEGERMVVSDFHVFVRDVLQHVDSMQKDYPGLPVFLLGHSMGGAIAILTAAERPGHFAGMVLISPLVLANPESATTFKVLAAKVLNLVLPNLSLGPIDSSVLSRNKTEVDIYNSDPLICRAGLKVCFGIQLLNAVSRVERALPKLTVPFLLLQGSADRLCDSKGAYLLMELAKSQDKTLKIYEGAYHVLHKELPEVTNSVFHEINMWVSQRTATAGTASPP
Procedure, shortened: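 Enzyme in 20 mM PIPES pH 7.0, 150 mM NaCl, 0.001% Tween 20 with 4MU-B at 10 μM final and MGL at 5 nM final; compounds 17 to 0.0003 μM final, enzyme added last. Fluorescence (ex 335/em 440 nm) followed at 37° C for 5 min; IC50 from fit of fractional activity versus inhibitor concentration.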

[2] = system: MGL (rat brain homogenate); assay: 2-AG accumulation assay in rat brain homogenate; type: biochemical; details: compound 1 μM, percent of vehicle 2-AG accumulation
Procedure, shortened: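 Rat brain homogenate was incubated with compound for 15 min at 37° C., after which CaCl2 was added to a final concentration of 10 mM and incubation continued for 15 min at 37° C. in 5 mL total. Reactions were stopped with 6 mL of 2:1 chloroform/methanol, and 2-AG accumulated in the organic phase was quantified by HPLC/MS.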

With `O=C(c1ccc(Cc2ccc(C(F)(F)F)cc2)cc1)N1CC(N[C@H]2CCN(C(=O)c3ccccc3)C2)C1` [Cpd 77, (S)-(3-((1-Benzoylpyrrolidin-3-yl)amino)azetidin-1-yl)(4-(4-(trifluoromethyl)benzyl)phenyl)methanone] the IC50 [1] was under 5 nM and the “Rat Brain 2AG % VehCntrl (%) @1 μM” value [2] was 506%.

In the case of `O=C(c1nccs1)N1CC[C@H](NC2CN(C(=O)c3sc4cc(Br)ccc4c3Cl)C2)C1` [Cpd 140, (3S)-N-{1-[(6-Bromo-3-chloro-1-benzothiophen-2-yl)carbonyl]azetidin-3-yl}-1-(1,3-thiazol-2-ylcarbonyl)pyrrolidin-3-amine], the IC50 [1] is reported as 12.4 nM and the “Rat Brain 2AG % VehCntrl (%) @1 μM” value [2] is reported as 742%.

With `O=C(c1cscn1)N1CC[C@H](NC2CN(C(=O)c3sc4ccc(-c5ccc(C(F)(F)F)cc5)cc4c3F)C2)C1` [Cpd 175, (3S)-N-[1-({3-Fluoro-5-[4-(trifluoromethyl)phenyl]-1-benzothiophen-2-yl}carbonyl)azetidin-3-yl]-1-(1,3-thiazol-4-ylcarbonyl)pyrrolidin-3-amine] the IC50 [1] was under 5 nM and the “Rat Brain 2AG % VehCntrl (%) @1 μM” value [2] was 734%.

With `O=C(c1cscn1)N1CC[C@H](NC2CN(C(=O)c3cc4cc(-c5ccccc5)ccc4s3)C2)C1` [Cpd 131, (3S)-N-{1-[(5-Phenyl-1-benzothiophen-2-yl)carbonyl]azetidin-3-yl}-1-(1,3-thiazol-4-ylcarbonyl)pyrrolidin-3-amine] the IC50 [1] was under 5 nM and the “Rat Brain 2AG % VehCntrl (%) @1 μM” value [2] was 385%.

With `Cc1c(C(=O)N2CC(N[C@H]3CCN(C(=O)c4nccs4)C3)C2)sc2ccc(-c3cccc(C(F)(F)F)c3)cc12` [Cpd 90, (3S)-N-[1-({3-Methyl-5-[3-(trifluoromethyl)phenyl]-1-benzothiophen-2-yl}carbonyl)azetidin-3-yl]-1-(1,3-thiazol-2-ylcarbonyl)pyrrolidin-3-amine] the IC50 [1] was under 5 nM and the “Rat Brain 2AG % VehCntrl (%) @1 μM” value [2] was 1130%.

`O=C(c1nccs1)N1CC[C@H](NC2CN(C(=O)c3cc4ccn(-c5ccc(F)cc5)c4cc3F)C2)C1` [Cpd 212, (3S)-N-(1-{[6-Fluoro-1-(4-fluorophenyl)-1H-indol-5-yl]carbonyl}azetidin-3-yl)-1-(1,3-thiazol-2-ylcarbonyl)pyrrolidin-3-amine] was tested, and the IC50 [1] was under 5 nM and the “Rat Brain 2AG % VehCntrl (%) @1 μM” value [2] was 582%.

For `CC(C)=Cc1c(C(=O)N2CC(N[C@H]3CCN(C(=O)c4ccccc4)C3)C2)sc2cc(C(F)(F)F)ccc12` [Cpd 76, (3S)-N-(1-{[3-(2-Methylprop-1-en-1-yl)-6-(trifluoromethyl)-1-benzothiophen-2-yl]carbonyl}azetidin-3-yl)-1-(phenylcarbonyl)pyrrolidin-3-amine], the IC50 [1] was 61.8 nM and the “Rat Brain 2AG % VehCntrl (%) @1 μM” value [2] was 522%.

With `O=C(c1ccc2c(-c3ccccc3)c[nH]c2c1)N1CC(N[C@H]2CCN(C(=O)c3nccs3)C2)C1` [Cpd 187, (3S)-N-{1-[(3-Phenyl-1H-indol-6-yl)carbonyl]azetidin-3-yl}-1-(1,3-thiazol-2-ylcarbonyl)pyrrolidin-3-amine] the IC50 [1] was under 5 nM and the “Rat Brain 2AG % VehCntrl (%) @1 μM” value [2] was 242%.

`Cn1cc(-c2ccc(C(F)(F)F)cc2)c2ccc(C(=O)N3CC(N[C@H]4CCN(C(=O)c5cscn5)C4)C3)cc21` [Cpd 165, (3S)-N-[1-({1-Methyl-3-[4-(trifluoromethyl)phenyl]-1H-indol-6-yl}carbonyl)azetidin-3-yl]-1-(1,3-thiazol-4-ylcarbonyl)pyrrolidin-3-amine] was tested, and the IC50 [1] was 44.5 nM and the “Rat Brain 2AG % VehCntrl (%) @1 μM” value [2] was 228%.

With `O=C(c1ccc(Cc2cccc(C(F)(F)F)c2)cc1)N1CC(N[C@H]2CCN(C(=O)c3ccccc3)C2)C1` [Cpd 126, (3S)-1-(Phenylcarbonyl)-N-[1-({4-[3-(trifluoromethyl)benzyl]phenyl}carbonyl)azetidin-3-yl]pyrrolidin-3-amine] the IC50 [1] was under 5 nM and the “Rat Brain 2AG % VehCntrl (%) @1 μM” value [2] was 715%.

With `O=C(c1cscn1)N1CC[C@H](NC2CN(C(=O)c3sc4cc(-c5ccc(C(F)(F)F)cc5)ccc4c3F)C2)C1` [Cpd 178, (3S)-N-[1-({3-Fluoro-6-[4-(trifluoromethyl)phenyl]-1-benzothiophen-2-yl}carbonyl)azetidin-3-yl]-1-(1,3-thiazol-4-ylcarbonyl)pyrrolidin-3-amine] the IC50 [1] was under 5 nM and the “Rat Brain 2AG % VehCntrl (%) @1 μM” value [2] was 297%.

With `O=C(c1nccs1)N1CC[C@H](NC2CN(C(=O)c3sc4ccc(-c5ccccc5)cc4c3F)C2)C1` [Cpd 171, (3S)-N-{1-[(3-Fluoro-5-phenyl-1-benzothiophen-2-yl)carbonyl]azetidin-3-yl}-1-(1,3-thiazol-2-ylcarbonyl)pyrrolidin-3-amine] the IC50 [1] was under 5 nM and the “Rat Brain 2AG % VehCntrl (%) @1 μM” value [2] was 614%.

`O=C(c1ccc(C(O)c2ccc(C(F)(F)F)cc2)cc1)N1CC(N[C@H]2CCN(C(=O)c3ccccc3)C2)C1` (stereo partly drawn) [Cpd 67] was tested, and the IC50 [1] was 9.7 nM and the “Rat Brain 2AG % VehCntrl (%) @1 μM” value [2] was 928%.

For `Cc1c(C(=O)N2CC(N[C@H]3CCN(C(=O)c4cscn4)C3)C2)sc2ccc(Cl)cc12` [Cpd 85, (3S)-N-{1-[(5-Chloro-3-methyl-1-benzothiophen-2-yl)carbonyl]azetidin-3-yl}-1-(1,3-thiazol-4-ylcarbonyl)pyrrolidin-3-amine], the IC50 [1] was 48.2 nM and the “Rat Brain 2AG % VehCntrl (%) @1 μM” value [2] was 335%.

`O=C(c1ccc2c(c1)c(F)cn2-c1ccc(F)cc1)N1CC(N[C@H]2CCN(C(=O)c3cscn3)C2)C1` [Cpd 143, (3S)-N-(1-{[3-Fluoro-1-(4-fluorophenyl)-1H-indol-5-yl]carbonyl}azetidin-3-yl)-1-(1,3-thiazol-4-ylcarbonyl)pyrrolidin-3-amine] was tested, and the IC50 [1] was 46.5 nM and the “Rat Brain 2AG % VehCntrl (%) @1 μM” value [2] was 244%.

`Cc1c(C(=O)N2CC(N[C@H]3CCN(C(=O)c4nccs4)C3)C2)sc2cc(F)ccc12` [Cpd 87, (3S)-N-{1-[(6-Fluoro-3-methyl-1-benzothiophen-2-yl)carbonyl]azetidin-3-yl}-1-(1,3-thiazol-2-ylcarbonyl)pyrrolidin-3-amine] was tested, and the IC50 [1] was 34.1 nM and the “Rat Brain 2AG % VehCntrl (%) @1 μM” value [2] was 385%.

For `O=C(c1ccc(Cc2ccc(C(F)(F)F)cc2)cc1)N1CC(N[C@H]2CCN(C(=O)c3cscn3)C2)C1` [Cpd 144, (3S)-1-(1,3-Thiazol-4-ylcarbonyl)-N-[1-({4-[4-(trifluoromethyl)benzyl]phenyl}carbonyl)azetidin-3-yl]pyrrolidin-3-amine], the IC50 [1] was under 5 nM and the “Rat Brain 2AG % VehCntrl (%) @1 μM” value [2] was 992%.

With `O=C(c1cscn1)N1CC[C@H](NC2CN(C(=O)c3sc4cc(Br)ccc4c3Cl)C2)C1` [Cpd 141, (3S)-N-{1-[(6-Bromo-3-chloro-1-benzothiophen-2-yl)carbonyl]azetidin-3-yl}-1-(1,3-thiazol-4-ylcarbonyl)pyrrolidin-3-amine] the IC50 [1] was 19 nM and the “Rat Brain 2AG % VehCntrl (%) @1 μM” value [2] was 388%.

For `Cc1cc(-c2cccc(C(F)(F)F)c2)ccc1C(=O)N1CC(N[C@H]2CCN(C(=O)c3nccs3)C2)C1` [Cpd 117, (3S)-N-(1-{[3-Methyl-3′-(trifluoromethyl)biphenyl-4-yl]carbonyl}azetidin-3-yl)-1-(1,3-thiazol-2-ylcarbonyl)pyrrolidin-3-amine], the IC50 [1] was under 5 nM and the “Rat Brain 2AG % VehCntrl (%) @1 μM” value [2] was 400%.

For `O=C(c1cscn1)N1CC[C@H](NC2CN(C(=O)c3sc4cc(C(F)(F)F)ccc4c3Cl)C2)C1` [Cpd 168, (3S)-N-(1-{[3-Chloro-6-(trifluoromethyl)-1-benzothiophen-2-yl]carbonyl}azetidin-3-yl)-1-(1,3-thiazol-4-ylcarbonyl)pyrrolidin-3-amine], the IC50 [1] was 32.2 nM and the “Rat Brain 2AG % VehCntrl (%) @1 μM” value [2] was 611%.

`Cn1cc(-c2ccc(F)cc2)c2ccc(C(=O)N3CC(N[C@H]4CCN(C(=O)c5ccccc5)C4)C3)cc21` [Cpd 194, (3S)-N-(1-{[3-(4-Fluorophenyl)-1-methyl-1H-indol-6-yl]carbonyl}azetidin-3-yl)-1-(phenylcarbonyl)pyrrolidin-3-amine] was tested, and the IC50 [1] was 44.9 nM and the “Rat Brain 2AG % VehCntrl (%) @1 μM” value [2] was 178%.
